The source of these data is PubChem BioAssay AID1645863 (Buhrlage Lab, Dana-Farber Cancer Institute and Novartis …, 2021).

Each structure is given as a SMILES string. Activity calls are given as the source filed them. No rule for the calls is given here.

Ubiquitin carboxyl-terminal hydrolase 10 (Homo sapiens), sequence (Q14694 whole entry, looked up): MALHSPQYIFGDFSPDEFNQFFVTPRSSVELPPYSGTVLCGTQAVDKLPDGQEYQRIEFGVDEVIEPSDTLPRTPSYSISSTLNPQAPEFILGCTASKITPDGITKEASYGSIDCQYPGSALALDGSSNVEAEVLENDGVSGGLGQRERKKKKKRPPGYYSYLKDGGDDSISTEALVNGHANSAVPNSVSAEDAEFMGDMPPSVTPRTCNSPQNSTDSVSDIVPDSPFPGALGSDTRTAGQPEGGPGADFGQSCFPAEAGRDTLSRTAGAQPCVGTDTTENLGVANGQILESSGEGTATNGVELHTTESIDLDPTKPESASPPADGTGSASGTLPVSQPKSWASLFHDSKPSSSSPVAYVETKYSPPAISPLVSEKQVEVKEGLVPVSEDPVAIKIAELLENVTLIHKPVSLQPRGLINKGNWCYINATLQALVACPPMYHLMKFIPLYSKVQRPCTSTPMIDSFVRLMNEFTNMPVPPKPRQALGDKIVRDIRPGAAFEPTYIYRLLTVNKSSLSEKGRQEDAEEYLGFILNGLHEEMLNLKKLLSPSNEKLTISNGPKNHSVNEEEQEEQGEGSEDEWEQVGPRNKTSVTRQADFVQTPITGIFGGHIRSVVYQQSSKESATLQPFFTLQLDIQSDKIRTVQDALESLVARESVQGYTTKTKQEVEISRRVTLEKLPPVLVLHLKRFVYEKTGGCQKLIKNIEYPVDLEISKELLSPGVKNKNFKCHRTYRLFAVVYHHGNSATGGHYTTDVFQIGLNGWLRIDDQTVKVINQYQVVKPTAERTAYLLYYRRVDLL

This experiment addresses Ubiquitin carboxyl-terminal hydrolase 10 (Homo sapiens) (UniProt Q14694). As to the kind of experiment: primary hit verification, biochemical, ubiquitin-specific protease 10 deubiquitylase inhibitors, concentration-effect titration (AID 1645863).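 Also: potency values describe inhibition of USP10 cleavage of a fluorogenic ubiquitin substrate.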 Conditions: USP10 deubiquitinase enzymatic assay.
Usually IC50 stands for the concentration at which inhibition is half-maximal. Take `CCCn1cc(-c2nc(-c3ccccn3)no2)c(=O)c2ccccc21`: the IC50 was > 40 µM (inactive).
The result for `O=C(NCc1ccc(Cl)cc1)c1cc2c(s1)-c1ccccc1OC2` reads > 40 µM (inactive); that for `COc1cc(NC(=O)Cn2c(=O)n(-c3ccc(CC(=O)NCc4ccco4)cc3)c(=O)c3ccccc32)cc(OC)c1`, 23.3 µM.
Next, `COC(=O)Nc1cccn(Cc2c(Cl)cccc2Cl)c1=O`: > 40 µM (inactive); `CN(C)c1ccc(CNC(=O)c2nnc(C(=O)Nc3ccccc3)s2)cc1`: > 40 µM (inactive).
Next, `COc1ccc(N2CC(c3nnc(NC(=O)CCc4ccccc4)s3)CC2=O)cc1` (configuration not stated): > 40 µM (inactive); `COC(=O)c1ccc(NC(=O)/C=C/c2ccc(F)cc2)cc1`: > 40 µM (inactive).
Turning to `O=c1cc(-c2ccc(O)c(O)c2)oc2cc(O)cc(O)c12`, the IC50 is 1.8 µM.
Next, `Cc1cc(C)c(NC(=O)Cn2c(SCc3cccc(F)c3)nc3cccnc32)c(C)c1`: > 40 µM (inactive).
Turning to `Cc1ccc(CC(=O)Nc2ccc(C)cc2-c2n[nH]c(C3CC3)n2)cc1`, the IC50 is > 40 µM (inactive).
Next, `COC(=O)c1ccc(NC(=O)c2ccc(COc3cc(Cl)ccc3Cl)cc2)cc1`: > 40 µM (inactive); `COc1ccc(-c2noc(C3(c4ccc(F)cc4)CCOCC3)n2)cc1`: > 40 µM (inactive); `Cc1nc(-c2ccc(Cl)cc2)oc1C(=O)Nc1ccc(Cl)cc1`: 38.1 µM.
The result for `Cc1ccc2c(c1)c(=O)c(C(=O)c1ccccc1)cn2CC(=O)Nc1ccc2c(c1)OCCO2` reads > 40 µM (inactive).
Next, `CN1C(=O)COc2cc(-c3noc(C(=O)NCc4ccc(F)cc4)n3)ccc21`: 24.9 µM; `Cc1nc(N2CCN(c3ccc(Cl)cc3)CC2)c2oc3ccccc3c2n1`: 17.7 µM; `Cc1ccc(Cn2cc(C(=O)Nc3ccccc3C(N)=O)ccc2=O)cc1`: 2.81 µM.
On to `CC(c1ccccc1)N1CC(O)=C(c2nc3ccccc3s2)C1=N` (configuration not stated), for which the IC50 is > 40 µM (inactive).
As to `COc1ccc2c(c1)CCc1c-2nc2ccccc2c1N1CCOCC1`, the IC50 was > 40 µM (inactive).
Regarding `Cc1ccc(NC(=O)c2cc(-c3ccccn3)nc3c(Cl)cccc23)nc1`, the IC50 was > 40 µM (inactive).
The result for `CSC1SCC2C(=O)N(C)C(C(C)C(C)C)C(=O)OCC(NC(=O)c3cnc4ccccc4n3)C(=O)NC(C)C(=O)N(C)C1C(=O)N(C)C(C(C)C(C)C)C(=O)OCC(NC(=O)c1cnc3ccccc3n1)C(=O)NC(C)C(=O)N2C` (configuration not stated) reads 19.3 µM.
With `Cc1ccc(NC(=O)Nc2ccc(C)n(CC(=O)Nc3cccc(C)c3)c2=O)cc1`, the IC50 was > 40 µM (inactive).
Next, `COc1cccc(C2c3[nH]c4ccccc4c3C[C@@H]3C(=O)N(CC(O)c4ccccc4)CC(=O)N23)c1` (some centres not stated): > 40 µM (inactive).
Regarding `CCOc1ccc(CC(=O)Nc2ccc(-c3cn4cccnc4n3)cc2)cc1`, the IC50 is > 40 µM (inactive).
Next, `O=C(CNC(=O)OCc1ccccc1)Nc1ccc(Br)cc1C(=O)c1ccccc1Cl`: > 40 µM (inactive).
The result for `O=C(c1cnccn1)N1CC[C@@H]2CNS(=O)(=O)[C@@H]2CC1` reads > 40 µM (inactive); that for `O=C(Cn1c(=O)n(Cc2ccc3c(c2)OCO3)c(=O)c2ccccc21)NCc1ccco1`, 30.5 µM.
The result for `Nc1c(-c2nc(-c3ccccc3Cl)no2)nnn1-c1ccc(Cl)cc1` reads 11.5 µM; that for `Cc1cccc(OCC2=NN3C(=N)/C(=C\c4cc(C)n(-c5cc(C)cc(C)c5)c4C)C(=O)N=C3S2)c1`, > 40 µM (inactive).
On to `Cc1ccc(C(=O)NC(C)c2ccccc2)cc1NC(=O)c1nsc2ccccc12` (configuration not stated), for which the IC50 is 27.9 µM.
Next, `Cc1ccccc1-c1nnc2sc(COc3ccc(Cl)cc3)nn12`: > 40 µM (inactive).
The result for `NS(=O)(=O)c1cccc(NC(=O)/C=C/c2cn(-c3ccccc3)nc2-c2cccc([N+](=O)[O-])c2)c1` reads 27.4 µM; that for `Cc1ccc(Nc2nc(O)c(CC(=O)Nc3ccccc3C)s2)cc1C`, > 40 µM (inactive).
The result for `N#Cc1ccc(NC(=O)Nc2cccn(Cc3ccccc3Br)c2=O)cc1` reads > 40 µM (inactive).
Regarding `O=C(Nc1ccc(C(F)(F)F)cc1)C1CC(=O)N(c2ccc3c(c2)OCCO3)C1` (configuration not stated), the IC50 is > 40 µM (inactive).
On to `O=C(CNS(=O)(=O)c1ccc(F)cc1)N1CCCC(c2nnc3ccccn23)C1` (configuration not stated), for which the IC50 is > 40 µM (inactive).
The result for `Cc1ccccc1NC(=O)N1CCC(CC(=O)N2CCCCC2)CC1` reads > 40 µM (inactive); that for `Cn1cc(NC(=O)Nc2cccc(C(F)(F)F)c2)c2ccccc2c1=O`, 28.5 µM; that for `COc1ccc(-c2nc(Cn3nnc(C(=O)Nc4ccc(C)c(C)c4)c3N)c(C)o2)cc1`, 29.1 µM.
The result for `O=C(NCc1ccc(Br)cc1)c1cc(-c2cccnc2)n[nH]1` reads > 40 µM (inactive); that for `CCC(=O)Nc1nc2cc(NC(=O)Nc3ccccc3Cl)ccc2s1`, > 40 µM (inactive).
Next, `CCOC(=O)c1cc2c(ccn2-c2ccc(F)cc2)n1CC(=O)Nc1ccc2c(c1)OCCO2`: 30.3 µM; `O=S(=O)(Nc1cccc(O)c1)c1ccc2oc3ccc(S(=O)(=O)Nc4cccc(O)c4)cc3c2c1`: 14.4 µM; `COc1ccc2[nH]c(=O)c(CN(C)C(=O)c3ccc([N+](=O)[O-])cc3)cc2c1`: > 40 µM (inactive).
On to `Cc1ccc(C(=O)c2cn(CC(=O)Nc3ccc(F)c(F)c3)c3ccc(F)cc3c2=O)cc1`, for which the IC50 is > 40 µM (inactive).
The result for `NC(=O)C[C@H](NC(=O)[C@H](Cc1ccccc1)n1c(=O)[nH]c2ccccc2c1=O)C(=O)N[C@@H](Cc1ccccc1)C(=O)O` reads > 40 µM (inactive).
Next, `Cc1cc(C(=O)Nc2cc([N+](=O)[O-])cc3oc(-c4ccccc4)cc23)on1`: > 40 µM (inactive).
The result for `Cc1nn(-c2ccccc2)c2c1nc(CCC(=O)NC1CCCCC1)c(=O)n2C` reads > 40 µM (inactive).
Turning to `CCC(=O)Nc1nc2cc(NC(=O)Nc3ccc(C)cc3)ccc2s1`, the IC50 was > 40 µM (inactive).
The result for `COc1cc2cc3c(c(O)c2c(O)c1-c1c(OC)cc2cc4c(c(O)c2c1O)C(=O)OC1CC(C)OC41)C(=O)OC1CC(C)OC31` (configuration not stated) reads 9.21 µM.
Next, `COc1ccc(Nc2nc3c(S(=O)(=O)c4ccc(C)cc4)nnn3c3ccsc23)c(OC)c1`: 10.5 µM; `O=C(Nc1cc(F)c2nc(N3CCOCC3)ccc2c1)C1CC1`: > 40 µM (inactive); `O=C(c1ccccc1CN1CCOCC1)N1CCOCC2(C1)CN(c1ccc(F)cc1)C(=O)O2` (configuration not stated): > 40 µM (inactive).
Next, `CC[C@@H](C(=O)[C@@H](C)[C@@H](O)[C@H](C)CCc1ccc(C)c(O)c1C(=O)O)[C@@H]1O[C@](CC)([C@H]2CC[C@](O)(CC)[C@H](C)O2)C[C@@H]1C`: 12.4 µM; `O=C(/C=C/c1ccco1)N1CCC(Cn2cccn2)CC1`: > 40 µM (inactive).
For `Cc1cccc(NC(=O)CSc2nnc(-c3n[nH]c4c3CCC4)n2N)c1C`, the IC50 is > 40 µM (inactive).
Next, `Cn1nc(C(=O)N2CCC(c3ccccc3)C2)c2c1-c1ccsc1CC2` (configuration not stated): > 40 µM (inactive).
